Entries after “also recorded” stand apart in the source; their conditions may differ.
Experiments:
tau protein = molecular target: T1, tau protein (Homo sapiens, UniProt P10636, A469T); experiment: Tau degradation assay (western blot) in human tau-A152T neurons; format: cell-based; conditions: 6-week differentiated A152T neurons; treatment for 24 hours; FIG. 6
T1 construct: cultured human differentiated frontotemporal lobar dementia (FTD) neurons; endogenous in cells; host or cells: human differentiated FTD neurons, tau-A152T (line 19-5-RC6)
Experimental: Example compounds 1-12 were evaluated for their ability to degrade tau protein in cultured human differentiated frontotemporal lobar dementia (FTD) neurons. […] For each condition, 1 well of differentiated neuronal cells (6 well-plate) was washed and collected in PBS, pelleted and lysed in RIPA buffer (Boston Bio-Products) with 2% SDS (Sigma), protease inhibitors (Roche Complete Mini tablets), and phosphatase inhibitors (Sigma), followed by sonication in a water sonicator (Bransonic Ultrasonic Baths, Thomas Scientific) for 5 min, and centrifugation at 20,000 g for 15 min. Supernatants were transferred to new tubes, total protein concentration was quantified with the Pierce BCA Protein Assay Kit (Thermo), and SDS-PAGE gels were loaded with 10 μg total protein per well (pre-boiled samples). Western blots were performed with the Novex NuPAGE SDS-PAGE Gel System (Invitrogen). All samples were resolved in 7% Tris-Acetate gels with Tris-Acetate running buffer (Invitrogen). Blots were probed with antibodies against total tau (TAU5) and phosphosrylated tau (Ser396), along with β-actin as a loading control; followed by corresponding HRP-linked secondary antibodies (Cell Signaling Technology), and SuperSignal West Pico Chemiluminescent Substrate (Thermo) detection. Membranes were exposed to autoradiographic film (LabScientific) and films were scanned using an Epson Perfection V800 Photo Scanner. Protein band intensities (pixel mean intensity) were quantified using Adobe Photoshop CS5 Histogram function. Whereas the vehicle alone (DMSO) had no effect on tau, varying degrading activity was observed amongst the compounds, however with overall similar relative levels of degrading activity between tau-A152T neurons and tau-P301L neurons. Compounds were added at the doses indicated of either 0.1, 1, 5, or 10 μM.
Four-week differentiated neurons, both non-mutant (8330-8) and tau-A152T (19-5-RC6) were employed. The neurons were treated with T807 for 24 hours (at 10 μg/mL=59.4 μM). One well of differentiated neuronal cells (6 well-plate, treated or untreated) was washed and collected in PBS, pelleted and directly lysed in 200 μL of Sample Buffer (New England Biolabs) supplemented with 3X DTT, boiled for 15 min and 10 μL of each lysate was run by SDS-PAGE in a 4-12% Bis-Tris Gel, with MOPS running buffer. Blots were probed with antibodies to total tau (DA9) and phosphorylated tau (Ser396, PHF1, AT8) along with GAPDH as a loading control.
Example compounds 2-5 were reevaluated for their ability to degrade tau protein in human FTD neurons as well as evaluate their effect on E3 ubiquitin ligases CRBN, VHL, and CHIP (FIG. 4A-E). For each control and treatment, 1 well of differentiated neuronal cells (6 well-plate) was washed and collected in PBS, pelleted and lysed in RIPA buffer (Boston Bio-Products) with 2% SDS (Sigma), protease inhibitors (Roche Complete Mini tablets), and phosphatase inhibitors (Sigma), followed by sonication in a water sonicator (Bransonic Ultrasonic Baths, Thomas Scientific) for 5 min, and centrifugation at 20,000 g for 15 min. Supernatants were transferred to new tubes, total protein concentration was quantified with the Pierce BCA Protein Assay Kit (Thermo), and SDS-PAGE gels were loaded with 10 μg total protein per well (pre-boiled samples). […] Protein band intensities (pixel mean intensity) were quantified using Adobe Photoshop CS5 Histogram function. […]

A152T neurons = experiment: Neuronal viability / rescue of stress vulnerability to β-amyloid (1-42) peptide; conditions: A152T neurons differentiated 8 weeks, FIG. 7
[1] = In vivo pharmacokinetic study of plasma and brain tissue in mice; conditions: male CD-1 mice, 30 mg/kg intraperitoneal
Experimental: (§1) To determine whether the compounds of the present disclosure are capable of crossing the blood brain barrier (BBB), a key property for use of these compounds as CNS therapeutics, compound 3 was administered to mice in a pharmacokinetic study of plasma and brain tissue. A stable formulation compatible with chronic administration was prepared prior to administration, and analytical methods for measuring concentration of the compound in plasma and brain tissue were developed. Mice were additionally monitored for tolerability for up to 24 hours.
Animal Husbandry: Male CD-1 mice were group housed during a 2-3 day acclimation prior to the study at an animal room environment with a controlled environment (target conditions: temperature 18-26° C., relative humidity 30-70%, 12 hours artificial light and 12 hours dark). All animals had access to Certified Rodent Diet and water ad libitum.
(§2) For intraperitoneal (IP) dosing, the dose formulation was administered with a dose volume determined by the animals' body weight collected on the morning of dosing day.
Sample Collection & Processing:
Blood Samples: A blood sample (about 0.03 mL per time point) was collected from each mouse into polypropylene tubes at each timepoint. All blood samples were transferred into pre-chilled commercial EDTA-K2 tubes or pre-chilled plastic microcentrifuge tubes containing 2 μL of EDTA-K2 as anti-coagulant and placed on wet ice until centrifugation. Each collected blood sample was centrifuged for 15 minutes at 4° C. and 3000 g for plasma collection. Plasma from each mouse was transferred into a pre-labeled polypropylene tube in dry ice at each time point. After terminal collection, all plasmas were stored at approximately −80° C. until bioanalysis.
Brain Samples: Whole brain was dissected at each designated time point and rinsed twice cold in deionized water before processing. They were then blotted on filter paper, weighed and homogenized with 5-fold of cold 15 mM PBS/MeOH (V:V, 2:1) using mechanical method. The samples were kept with ice water when homogenizing, and further stored at −80° C. until bioanalysis.
Bioanalytical Method Development: A LC-MS/MS method was developed and used for the quantitative determination of test compound concentration in blood and brain with a calibration curve applied to determine the limits of quantification.
In Vivo Sample Analysis: Plasma and brain concentration versus time data along with C^max, Tmax, T1/2, and AUC(0-t) was analyzed by non-compartmental approaches using the Phoenix WinNonlin 6.3 software program.

[2] = Dose formulation in 20% PEG400 in water; format: physicochemical; conditions: 5.00 mg/mL in 20% PEG400 in water
Experimental: as §2

[3] = Tolerability monitoring of mice for up to 24 hours; format: in vivo; conditions: male CD-1 mice, 30 mg/kg intraperitoneal, monitored up to 24 hours
Experimental: as §1

T1 sequence (P10636 1-441 isoform P10636-8 A152T): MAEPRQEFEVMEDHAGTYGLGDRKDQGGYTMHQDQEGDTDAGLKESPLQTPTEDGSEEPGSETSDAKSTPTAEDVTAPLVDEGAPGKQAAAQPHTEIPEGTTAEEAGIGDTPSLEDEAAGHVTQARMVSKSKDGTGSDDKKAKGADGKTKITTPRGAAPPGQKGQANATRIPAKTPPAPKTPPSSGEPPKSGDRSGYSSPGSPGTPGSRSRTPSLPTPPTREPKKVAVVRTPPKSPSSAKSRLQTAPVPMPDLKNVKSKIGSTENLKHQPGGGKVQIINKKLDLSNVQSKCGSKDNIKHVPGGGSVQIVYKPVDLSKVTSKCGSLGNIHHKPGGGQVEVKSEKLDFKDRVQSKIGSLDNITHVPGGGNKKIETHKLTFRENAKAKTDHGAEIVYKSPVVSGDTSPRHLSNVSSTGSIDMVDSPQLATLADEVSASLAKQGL

## O=C(CCc1ccc2c(c1)[nH]c1ccncc12)NCCOCCOCCNc1cccc2c1C(=O)N(C1CCC(=O)NC1=O)C2=O (stereo not shown) [Compound 3, N-(2-(2-(2-((2-(2,6-dioxopiperidin-3-yl)-1,3-dioxoisoindolin-4-yl)amino)ethoxy)ethoxy)ethyl)-3-(5H-pyrido[4,3-b]indol-7-yl)propanamide]
Tau protein
  dose-dependency of effect on tau: dose dependent effect on tau
A152T neurons; 8 h pre-treatment, then 10 μM β-amyloid (1-42) peptide for 16 h
  rescue of stress vulnerability: effective at rescuing stress vulnerability
A152T neurons; compound alone
  effect on neuronal viability: no effect on neuronal viability
[1]; 20% PEG400/water, n=3 per group, 30 mg/kg
  brain penetration / crossing the blood-brain barrier: capable of brain penetration; also recorded: capable of crossing the blood-brain barrier
[1]; brain
  AUC0-last, Mean Brain: 74.3 ng·h/mL
  Cmax, Mean Brain: 56.4 ng/mL
  Tmax, Mean Brain: 0.500 h
[1]; plasma
  AUC0-last, Mean Plasma: 6938 ng·h/mL
  Cmax, Mean Plasma: 4640 ng/mL
  T1/2, Mean Plasma: 7.23 h
  Tmax, Mean Plasma: 1.00 h
[2]
  appearance/stability of dose formulation: clear, stable solution
[3]
  tolerability / adverse effects: no adverse effects were observed; also recorded: well tolerated
